Where two headings read alike, the source gives them in different places.
Tests used:
[1] = cited from earlier work
[2] = Storage stability at 4° C. (fraction of drug bound, dialysis); format: physicochemical
Method: To test the long-term stability, the multi-drug nanoparticles were stored under refrigeration at 4° C. and were tested for stability after a prolonged period. The lipid-drug combination particles are stable as determined by both particle size and degree of drug association (Table 12). […] Even the hydrophilic compound, which readily diffuses out of most lipid particles in a number of hours, loses a remarkably low fraction of the associated drug after 8, 12, and 17 months in storage. This exceptional stability provides a substantial advantage for translation to clinical application.

[3] = reported values; cited from earlier work
[4] = literature, cited from earlier work
HIV-2(287) replication = test: Antiviral activity in HIV-infected CEM-174 cells; format: cell-based
Method: The antiviral activity of the three-drug combination in soluble or LNP form was evaluated in HIV-infected CEM-174 cells as described previously. […] J Acquir Immune Defic Syndr 2003; 34(4):387-397, incorporated herein by reference in its entirety. […] The dose of drugs added to cells represents the sum of bound and unbound drugs in these anti-HIV LNP formulations.

[5] = Plasma drug exposure of three multi-drug lipid formulations vs free drug in primates; settings: for Lipid/Free Ratio: total AUC
[6] = Intracellular drug concentration in peripheral blood mononuclear cells (PBMCs); format: in vivo, Macaca nemestrina
Method: Four macaques were divided into two treatment groups (two animals per group). […] Data were normalized to the anti-HIV LNP dose for comparative analysis.
Plasma was removed, PBMCs were isolated by the density gradient method, and cells were aliquoted into pellets of approximately 2 million PBMCs each. An inguinal lymph node was surgically excised 24 h after drug administration (n=2 per treatment), LNMCs were isolated by passage through a 100-lm nylon cell strainer (Corning, Tewksbury, Mass.), and cells were aliquoted into pellets of approximately 1-2 million LNMCs each. All samples were stored at −80° C. prior to drug analysis.
Plasma concentrations of all three drugs were analyzed simultaneously by liquid chromatography-tandem mass spectrometry using a recently published method. […] PBMC and LNMC pellets were lysed using 200 μl water/methanol (1:1 v/v), sonicated for 10 min, and then extracted and analyzed using the same method as cited above. Intracellular concentrations were converted to ng/ml with the assumption that each cell has a volume of 4×10^−9 ml.

HIV-1 = test: microbe, parasite or virus in culture
[7] = Drug incorporation efficiency into lipid-drug nanoparticles (dialysis); format: physicochemical; settings: LNPs with ATV + RTV + TFV (2:1:3); for Incorporation efficiency (%): laboratory 0.2 mL scale; for Incorporation efficiency (%) / Drug incorporation (% total): preclinical 45 mL scale
Method: J Acquir Immune Defic Syndr. […] Journal of pharmaceutical sciences. […] The AAPS journal. […] Residual solvent was removed overnight by vacuum desiccation. The dried lipid-drug film was then rehydrated with 0.9% NaCl containing 20 mM sodium bicarbonate (pH 7.4). The lipid-drug samples were allowed to hydrate at 60° C. for 2 h. Then samples were sonicated (laboratory scale) or homogenized (preclinical scale) to achieve a homogenous suspension.
The incorporation efficiency was calculated as the ratio of the amount of incorporated drug over the total amount of drug loaded multiplied by 100%.

[8] = % Drug association to particles by assembly method; format: physicochemical
Summary of the method: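 Drugs and excipients (e.g., 9:1 DSPC:PEG-DSPE) dissolved in single-phase CHCl3:alcohol:water (65:35:4), dried under reduced pressure, heated above lipid phase transition (e.g., 50° C.). Hydrated with equilibrated buffered saline at that temperature for 3 hr, then size-reduced by shearing or pressurized filtration in liquid phase.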

[9] = Tables 18 and 19; cited from earlier work
[10] = Human immunodeficiency virus 2, CEM174, LPV:RTV:PMPA fixed 1:1:0.5 (m/m/m), LNP form, read-out: EC50 (nM), Drug-lipid nanoparticles with 3 drug combination
[11] = Human immunodeficiency virus 2, CEM174, LPV:RTV:PMPA fixed 1:1:0.5 (m/m/m), free form, read-out: EC50 (nM), Soluble 3 drug combination
[12] = Human immunodeficiency virus 1, read-out: EC50 in LNP form
[13] = Human immunodeficiency virus 1, read-out: EC50 in free form

C[C@H](Cn1cnc2c(N)ncnc21)OCP(=O)(O)O [Tenofovir (TFV), [(2R)-1-(6-aminopurin-9-yl)propan-2-yl]oxymethylphosphonic acid]
Water solubility @ 25° C. [1]: 13.3 mg/mL | Fraction of drug bound in multi-drug nanoparticles (% total) ([2]; 0 months): 9.32 ± 3.79% | Fraction of drug bound in multi-drug nanoparticles (% total) ([2]; 8 months): 7.72 ± 2.95% | Fraction of drug bound in multi-drug nanoparticles (% total) ([2]; 12 months): 8.79 ± 0.92% | Fraction of drug bound in multi-drug nanoparticles (% total) ([2]; 17 months, one batch): 7.30% | % Drug Association to Particles, Liposomes [3]: ~5% | final % drug association ([4]; double emulsion nano-precipitate method): less than 3% | association of hydrophilic drug ([4]; phosphatidylcholine with stearylamine, particles up to ˜2000 nm): 70% | EC50 (HIV-2(287) replication; [10]): 1.5 ± 0.1 nM | EC50 (HIV-2(287) replication; [11]): 49 ± 0.2 nM | EC50 (HIV-2(287) replication; read-out: EC50 (nM), Single agent controls, single agent, listed as PMPA): 1150 ± 0.7 nM | EC50 (HIV-2(287) replication; read-out: EC50 (nM), Single agent controls, single agent, listed as Tenofovir (PMPA/TFV)): 100 to 6000 nM | Lipid/Free Ratio ([5]; ATZ/RTV/TFV combination): 25.2 | Lipid/Free Ratio ([5]; LPV/RTV/TFV combination): 13.1 | fold increase in plasma exposure, lipid-stabilized vs free drug ([5]; across drug combinations): 10- to 20 fold | LNP/free ratio, mononuclear cells in blood ([6]; 0 h): 1.0 | Lipid/Free Ratio, PBMCs ([6]; 0 h): 1 | LNP/free ratio, mononuclear cells in blood ([6]; 0.5 h): 0.3 | Lipid/Free Ratio, PBMCs ([6]; 0.5 h): 0.3 | LNP/free ratio, mononuclear cells in blood ([6]; 1 h): 0.4 | Lipid/Free Ratio, PBMCs ([6]; 1 h): 0.4 | LNP/free ratio, mononuclear cells in blood ([6]; 3 h): 0.5 | LNP/free ratio, mononuclear cells in blood ([6]; 5 h): 4.6 | Lipid/Free Ratio, PBMCs ([6]; 5 h): 4.6 | LNP/free ratio, mononuclear cells in blood ([6]; 8 h): 59.0 | LNP/free ratio, mononuclear cells in blood ([6]; 8 h, listed as PMPA): over 50 | LNP/free ratio, mononuclear cells in blood ([6]; 8 h, listed as TFV): over 50 | LNP/free ratio, mononuclear cells in blood ([6]; 24 h): 70.0 | Lipid/Free Ratio, PBMCs ([6]; 24 h): 70 | LNP/free ratio, mononuclear cells in blood ([6]; 48 h): >227.0 | LNP/free ratio, mononuclear cells in blood ([6]; 168 h): >25.0 | Lipid/Free Ratio, PBMCs ([6]; 168 h): >25.0 | EC50 (HIV-1; [12]): 15 ± 0.1 nM | EC50 (HIV-1; [13]): 49 ± 0.2 nM | Incorporation efficiency (%) [7]: 2.4 ± 0.1% | Incorporation efficiency (%) ([7]; listed as TFV): about 2.4% | Incorporation efficiency (%) / Drug incorporation (% total) [7]: 6.1 ± 0.8% | Incorporation efficiency (%) / Drug incorporation (% total) ([7]; listed as tenofovir): 6.1±0.8% | % Drug Association to Particles, LNPs from mixture of dual solvent method [8]: 7-30% | % Drug Association to Particles, LNPs from single, miscible solvent method [8]: 78-85% | % association of hydrophilic drug in typical liposome ([8]; typical liposomes): 3-5%

CC(C)c1nc(CN(C)C(=O)N[C@H](C(=O)N[C@@H](Cc2ccccc2)C[C@H](O)[C@H](Cc2ccccc2)NC(=O)OCc2cncs2)C(C)C)cs1 [Ritonavir (RTV), Ritonavir]
Fraction of drug bound in multi-drug nanoparticles (% total) ([2]; 0 months): 88.30 ± 7.38% | Fraction of drug bound in multi-drug nanoparticles (% total) ([2]; 8 months): 93.01 ± 7.70% | Fraction of drug bound in multi-drug nanoparticles (% total) ([2]; 12 months): 94.91 ± 13.66% | Fraction of drug bound in multi-drug nanoparticles (% total) ([2]; 17 months, one batch): 90.50% | LogP [9]: 6 | EC50 (HIV-2(287) replication; [10]): 3 ± 0.8 nM | EC50 (HIV-2(287) replication; [11]): 98 ± 0.3 nM | EC50 (HIV-2(287) replication; Human immunodeficiency virus 2, CEM174, read-out: EC50 (nM), Single agent controls, single agent): 530 ± 0.2 nM | EC50 (HIV-2(287) replication; read-out: EC50 (nM), Single agent controls, single agent): 1040 nM | EC50 (HIV-1; [12]): 30 ± 0.8 nM | EC50 (HIV-1; [13]): 98 ± 0.3 nM | % Drug Association to Particles, LNPs from mixture of dual solvent method [8]: 80-100% | % Drug Association to Particles, LNPs from single, miscible solvent method [8]: 90-100%

Reference: US10799456B2, “Multiple drug lipid nanoparticle composition and related methods for extended drug levels in blood and lymph tissue” (priority 2015, dated 2020)
